Biological target: PrP^Sc (Mus musculus, UniProt P04925)
Sequence (P04925 23-230 limits assumed): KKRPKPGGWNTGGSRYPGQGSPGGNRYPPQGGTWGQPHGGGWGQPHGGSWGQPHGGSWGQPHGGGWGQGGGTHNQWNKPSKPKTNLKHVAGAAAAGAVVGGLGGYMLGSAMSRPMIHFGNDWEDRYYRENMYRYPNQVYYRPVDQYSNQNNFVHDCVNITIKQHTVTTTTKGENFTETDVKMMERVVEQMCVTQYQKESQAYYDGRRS

For (GGG)KKRPKPGG [SEQ ID NO:68], the “binding to PrP^Sc, Western blotting (FIG. 4, lane 5)” value was “strong binding”.

Source: patent publication US20090191571A1 (priority 2005, published 2009)
